The target in assay [1] is Aldo-keto reductase family 1 member B1 (Rattus norvegicus, UniProt P07943). The assay is classed as tissue-based, Lens of camera-type eye.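 Further: inhibition of aldose reductase enzyme activity, measured with DL-glyceraldehyde as the substrate; in other assays of this panel Not Active means under 50% inhibition at 10 µM.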
The target of assay [2] is Matrix metalloproteinase-9 (Homo sapiens, UniProt P14780). The experiment in a line: biochemical. The assay is classed as cell-based.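 Further: inhibition of isolated MMP-9 enzyme activity toward a synthetic peptide substrate, from the DrugMatrix protease screening panel; in other assays of this panel Not Active means under 50% inhibition at 10 µM.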
Assay [3] addresses T1, Muscarinic acetylcholine receptor M5 (Homo sapiens, UniProt P08912).
T1 sequence (P08912 whole entry): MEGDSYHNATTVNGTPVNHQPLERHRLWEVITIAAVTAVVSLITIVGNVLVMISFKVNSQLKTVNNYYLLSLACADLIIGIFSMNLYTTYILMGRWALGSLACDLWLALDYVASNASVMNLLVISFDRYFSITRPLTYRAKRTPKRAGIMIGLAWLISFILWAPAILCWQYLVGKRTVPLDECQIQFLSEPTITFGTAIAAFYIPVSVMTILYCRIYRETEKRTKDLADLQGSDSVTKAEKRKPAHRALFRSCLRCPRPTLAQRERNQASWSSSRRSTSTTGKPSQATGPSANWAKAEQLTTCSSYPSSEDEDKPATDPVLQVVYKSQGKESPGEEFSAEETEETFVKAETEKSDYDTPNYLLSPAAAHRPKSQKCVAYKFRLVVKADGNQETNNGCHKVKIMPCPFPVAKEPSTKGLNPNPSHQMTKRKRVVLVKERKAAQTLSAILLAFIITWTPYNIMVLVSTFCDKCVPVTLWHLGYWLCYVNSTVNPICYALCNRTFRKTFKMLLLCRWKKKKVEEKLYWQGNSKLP
It counts as cell membranes, CHO-K1, Membrane. Conditions: cho-k1.

The target of a further assay is T2, Thromboxane-A synthase (Homo sapiens, UniProt P24557).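 Further: enzyme inhibition assay with PGH2 supplied as substrate; in other assays of this panel Not Active means under 50% inhibition at 10 µM.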
T2 sequence (P24557 whole entry): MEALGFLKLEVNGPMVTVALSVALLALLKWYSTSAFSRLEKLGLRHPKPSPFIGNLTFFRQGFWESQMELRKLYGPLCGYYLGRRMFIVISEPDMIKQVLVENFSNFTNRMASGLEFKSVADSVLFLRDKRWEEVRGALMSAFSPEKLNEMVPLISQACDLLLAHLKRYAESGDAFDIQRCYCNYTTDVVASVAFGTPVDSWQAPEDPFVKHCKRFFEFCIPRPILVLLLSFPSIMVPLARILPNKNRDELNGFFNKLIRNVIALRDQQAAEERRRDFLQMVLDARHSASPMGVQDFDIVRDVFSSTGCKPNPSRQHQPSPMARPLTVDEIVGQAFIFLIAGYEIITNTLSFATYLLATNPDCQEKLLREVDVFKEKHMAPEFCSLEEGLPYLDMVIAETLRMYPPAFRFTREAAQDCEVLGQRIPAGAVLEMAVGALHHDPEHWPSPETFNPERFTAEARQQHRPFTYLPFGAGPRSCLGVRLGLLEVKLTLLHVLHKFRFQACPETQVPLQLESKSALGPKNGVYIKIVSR
Nature of the assay: biochemical. The assay is classed as tissue-based, Platelet.

Another assay addresses T3, D(4) dopamine receptor (Homo sapiens, UniProt P21917).
T3 sequence (P21917 whole entry): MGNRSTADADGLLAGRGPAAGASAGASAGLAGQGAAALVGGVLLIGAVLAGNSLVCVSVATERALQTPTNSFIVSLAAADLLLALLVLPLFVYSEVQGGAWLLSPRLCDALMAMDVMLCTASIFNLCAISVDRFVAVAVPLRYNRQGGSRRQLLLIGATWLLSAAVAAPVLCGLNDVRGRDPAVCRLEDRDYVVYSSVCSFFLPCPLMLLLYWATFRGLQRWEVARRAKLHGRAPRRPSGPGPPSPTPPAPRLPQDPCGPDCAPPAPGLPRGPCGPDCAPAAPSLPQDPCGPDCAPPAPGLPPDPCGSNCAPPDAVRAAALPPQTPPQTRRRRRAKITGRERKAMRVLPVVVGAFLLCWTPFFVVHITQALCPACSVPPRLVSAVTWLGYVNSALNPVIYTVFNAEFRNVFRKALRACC
The experiment in a line: DRUGMATRIX: Dopamine D4.2 radioligand binding (ligand: [3H] Spiperone). It counts as cell membranes, CHO-K1, Membrane. Conditions: Not Active = under 50% inhibition at 10 µM.

The next assay concerns the target T4, Substance-K receptor (Homo sapiens, UniProt P21452). Further: in other assays of this panel Not Active means under 50% inhibition at 10 µM.
T4 sequence (P21452 whole entry): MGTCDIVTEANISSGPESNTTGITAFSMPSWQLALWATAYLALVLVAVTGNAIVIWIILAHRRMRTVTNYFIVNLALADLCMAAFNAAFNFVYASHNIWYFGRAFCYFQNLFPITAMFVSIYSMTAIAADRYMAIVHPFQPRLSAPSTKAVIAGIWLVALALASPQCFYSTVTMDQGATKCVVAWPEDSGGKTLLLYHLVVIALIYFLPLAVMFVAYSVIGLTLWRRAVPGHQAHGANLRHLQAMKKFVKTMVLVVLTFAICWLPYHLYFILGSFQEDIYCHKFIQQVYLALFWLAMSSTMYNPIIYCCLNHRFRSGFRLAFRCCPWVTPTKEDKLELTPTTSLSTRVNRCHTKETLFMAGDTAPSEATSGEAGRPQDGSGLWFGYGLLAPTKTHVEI
The assay is classed as cell membranes, CHO, Membrane.

Matrix metalloproteinase-9, sequence (P14780 whole entry): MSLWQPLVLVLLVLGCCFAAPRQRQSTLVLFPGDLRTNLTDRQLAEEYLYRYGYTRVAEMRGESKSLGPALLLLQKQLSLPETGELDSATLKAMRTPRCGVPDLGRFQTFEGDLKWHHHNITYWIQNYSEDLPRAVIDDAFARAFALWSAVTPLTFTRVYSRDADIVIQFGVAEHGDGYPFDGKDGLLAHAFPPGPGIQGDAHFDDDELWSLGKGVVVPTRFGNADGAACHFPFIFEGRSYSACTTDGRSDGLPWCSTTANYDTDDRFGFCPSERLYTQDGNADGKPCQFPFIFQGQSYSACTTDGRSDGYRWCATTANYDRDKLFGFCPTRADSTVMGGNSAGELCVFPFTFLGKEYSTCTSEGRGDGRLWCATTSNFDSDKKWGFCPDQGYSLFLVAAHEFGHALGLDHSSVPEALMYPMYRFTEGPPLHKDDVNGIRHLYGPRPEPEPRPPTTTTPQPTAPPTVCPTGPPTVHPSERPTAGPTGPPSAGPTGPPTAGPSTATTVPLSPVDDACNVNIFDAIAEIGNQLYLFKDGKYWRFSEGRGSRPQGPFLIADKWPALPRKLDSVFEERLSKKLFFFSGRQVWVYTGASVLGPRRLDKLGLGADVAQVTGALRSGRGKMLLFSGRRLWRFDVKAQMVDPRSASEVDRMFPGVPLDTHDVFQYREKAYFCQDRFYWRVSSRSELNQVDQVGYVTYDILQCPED

Consider `CCCCNc1ccc(C(=O)OCCN(C)C)cc1` [TETRACAINE], for which the IC50 result (in assay [1]; in assay [2]; in assay [3]; against Thromboxane-A synthase (platelet); on D(4) dopamine receptor (cho-k1); against Substance-K receptor (cho)) was “Not Active” throughout.
In the case of `CC[C@@H](C(=O)[C@@H](C)[C@@H](O)[C@H](C)[C@@H]1O[C@@H]([C@@H](CC)C(=O)O)CC[C@@H]1C)[C@H]1O[C@]2(C=C[C@@H](O)[C@]3(CC[C@@](C)([C@H]4CC[C@](O)(CC)[C@H](C)O4)O3)O2)[C@H](C)C[C@@H]1C` [SALINOMYCIN], the IC50 result (in assay [1]; in assay [2]; in assay [3]; against Thromboxane-A synthase (platelet); at D(4) dopamine receptor (cho-k1); against Substance-K receptor (cho)) was “Not Active” each time.
For `Cc1c(C)c2c(c(C)c1O)CCC(C)(CN1CCN(c3cc(N4CCCC4)nc(N4CCCC4)n3)CC1)O2` (stereo not drawn), the IC50 result (in assay [1]; in assay [2]; in assay [3]; at Thromboxane-A synthase (platelet); on D(4) dopamine receptor (cho-k1); on Substance-K receptor (cho)) was “Not Active” throughout.
In the case of `Clc1ccccc1CN1CCc2sccc2C1` [TICLOPIDINE], the IC50 entry (in assay [1]; in assay [2]; in assay [3]; against Thromboxane-A synthase (platelet); at D(4) dopamine receptor (cho-k1); at Substance-K receptor (cho)) was “Not Active” in each case.
Turning to `CS(=O)(=O)c1ccc([C@@H](O)[C@@H](CO)NC(=O)C(Cl)Cl)cc1` [THIAMPHENICOL], the IC50 result (in assay [1]; in assay [2]; in assay [3]; against Thromboxane-A synthase (platelet); on D(4) dopamine receptor (cho-k1); against Substance-K receptor (cho)) was “Not Active” in each case.
`O=C(Oc1ccccc1C(=O)O)c1ccccc1O` [SALSALATE]: the IC50 entry (in assay [1]; in assay [2]; in assay [3]; at Thromboxane-A synthase (platelet); on D(4) dopamine receptor (cho-k1); on Substance-K receptor (cho)) was “Not Active” throughout.
Turning to `CC(C)NCC(O)c1ccc(NS(C)(=O)=O)cc1` (stereo not drawn) [SOTALOL], the IC50 result (in assay [1]; in assay [2]; in assay [3]; at Thromboxane-A synthase (platelet); on D(4) dopamine receptor (cho-k1); on Substance-K receptor (cho)) was “Not Active” throughout.
Consider MANGANESE CHLORIDE ANHYDROUS, for which the IC50 entry (in assay [1]; in assay [2]; in assay [3]; at Thromboxane-A synthase (platelet); on D(4) dopamine receptor (cho-k1); at Substance-K receptor (cho)) was “Not Active” each time. Also, the Ki result (in assay [1]; in assay [2]; in assay [3]; at Thromboxane-A synthase (platelet); on D(4) dopamine receptor (cho-k1); on Substance-K receptor (cho)) was “Not Active” throughout.
As for `O.O.O.O.O.O.[Cl-].[Cl-].[Sr+2]` [STRONTIUM CHLORIDE HEXAHYDRATE], the IC50 result (in assay [1]; in assay [2]; in assay [3]; at Thromboxane-A synthase (platelet); at D(4) dopamine receptor (cho-k1); at Substance-K receptor (cho)) was “Not Active” throughout.
In the case of `Nc1cc(N2CCCCC2)nc(N)[n+]1[O-]` [MINOXIDIL], the IC50 result (in assay [1]; in assay [2]; in assay [3]; at Thromboxane-A synthase (platelet); at D(4) dopamine receptor (cho-k1); on Substance-K receptor (cho)) was “Not Active” in each case.
`CO[C@H]1/C=C/O[C@@]2(C)Oc3c(C)c(O)c4c(O)c(c(/C=N/N5CCN(C6CCCC6)CC5)c(O)c4c3C2=O)NC(=O)/C(C)=C\C=C\[C@H](C)[C@H](O)[C@@H](C)[C@@H](O)[C@@H](C)[C@H](OC(C)=O)[C@@H]1C` [RIFAPENTINE]: the IC50 result (in assay [1]; in assay [2]; in assay [3]; on Thromboxane-A synthase (platelet); at D(4) dopamine receptor (cho-k1); at Substance-K receptor (cho)) was “Not Active” in each case.
With `Cc1cccc(C)c1OCC(C)N` (stereo not drawn) [MEXILETINE], the IC50 result (in assay [1]; in assay [2]; in assay [3]; against Thromboxane-A synthase (platelet); at D(4) dopamine receptor (cho-k1); on Substance-K receptor (cho)) was “Not Active” throughout.
In the case of `Cc1ccc(NC(=O)c2ccc(CN3CCN(C)CC3)cc2)cc1Nc1nccc(-c2cccnc2)n1` [IMATINIB], the concentration for half-maximal inhibition (IC50) entry is “Not Active” in assay [1]; “Not Active” in assay [2]; “Not Active” in assay [3]; 0.198 µM at Thromboxane-A synthase (read-out: IC50); “Not Active” at D(4) dopamine receptor (cho-k1); “Not Active” against Substance-K receptor (cho).
As to `Clc1ccc(COC(Cn2ccnc2)c2ccc(Cl)cc2Cl)cc1` (stereo not drawn) [ECONAZOLE], the IC50 result is “Not Active” in assay [1]; 7 µM in assay [2] (read-out: IC50); “Not Active” in assay [3]; 0.029 µM on Thromboxane-A synthase (read-out: IC50); 9.33 µM at D(4) dopamine receptor (read-out: IC50); 6.03 µM at Substance-K receptor (read-out: IC50). For the same compound, the Ki amounted to 3.27 µM at D(4) dopamine receptor (read-out: Ki) and 2.01 µM at Substance-K receptor (read-out: Ki).
For `COc1c2occc2cc2ccc(=O)oc12` [METHOXSALEN], the IC50 entry (in assay [1]; in assay [2]; in assay [3]; against Thromboxane-A synthase (platelet); at D(4) dopamine receptor (cho-k1); against Substance-K receptor (cho)) was “Not Active” each time.
Regarding `C[C@H]1C[C@@H]2[C@H]([C@@H](O)C[C@@]3(C)[C@H]2CC[C@]3(O)C(=O)CO)[C@@]2(C)C=CC(=O)C=C12` [METHYLPREDNISOLONE], the IC50 entry (in assay [1]; in assay [2]; in assay [3]; on Thromboxane-A synthase (platelet); on D(4) dopamine receptor (cho-k1); at Substance-K receptor (cho)) was “Not Active” throughout.
`COc1cc2nc(N3CCN(C(=O)C4CCCO4)CC3)nc(N)c2cc1OC` (stereo not drawn) [TERAZOSIN]: the IC50 result (in assay [1]; in assay [2]; in assay [3]; at Thromboxane-A synthase (platelet); at D(4) dopamine receptor (cho-k1); on Substance-K receptor (cho)) was “Not Active” throughout.
As for `CC(c1cc2ccccc2s1)N(O)C(N)=O` (stereo not drawn) [ZILEUTON], the IC50 entry (in assay [1]; in assay [2]; in assay [3]; against Thromboxane-A synthase (platelet); at D(4) dopamine receptor (cho-k1); against Substance-K receptor (cho)) was “Not Active” each time.
For the compound `O=C1C(CC[S+]([O-])c2ccccc2)C(=O)N(c2ccccc2)N1c1ccccc1` (stereo not drawn) [SULFINPYRAZONE], the IC50 entry (in assay [1]; in assay [2]; in assay [3]; on Thromboxane-A synthase (platelet); on D(4) dopamine receptor (cho-k1); against Substance-K receptor (cho)) was “Not Active” throughout.
As to `CCN1CCC[C@H]1CNC(=O)c1cc(S(N)(=O)=O)ccc1OC` [LEVOSULPIRIDE], the half-inhibitory concentration (IC50) entry (in assay [1]; in assay [2]; in assay [3]; at Thromboxane-A synthase (platelet); at D(4) dopamine receptor (cho-k1); against Substance-K receptor (cho)) was “Not Active” throughout.

Usually IC50 stands for the concentration that inhibits the measured activity by half. For orientation: Ki means the equilibrium dissociation constant of an inhibitor or competing ligand from its target.

The values are drawn from ChEMBL document CHEMBL1909046, “DrugMatrix in vitro pharmacology data”.
